From US20250177383A1, “DI-CYCLOPROPYL BASED IL-17A MODULATORS AND USES THEREOF” (DICE ALPHA, INC., priority 2022, published 2025)

Experiments:
[1] = target: T1, IL-17A/A (Homo sapiens, UniProt Q16552); assay: IL-17A/A HEK-Blue Cell Assay; assay type: cell-based; details: HEK-Blue IL-17 reporter cells, IL-17A/A stimulation, 20 hours, SEAP readout; read-out: IL17 AA HEK-5 pIC50 (converted)
T1 sequence (Q16552 24-155): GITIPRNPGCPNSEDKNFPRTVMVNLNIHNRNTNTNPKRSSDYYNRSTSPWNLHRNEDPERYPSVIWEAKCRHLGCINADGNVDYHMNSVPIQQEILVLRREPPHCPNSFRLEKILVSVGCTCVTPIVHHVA
Summary of the method: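 Cells co-expressing IL-17RA, IL-17RC and Act1 received titrated compound, top final 10 uM in 0.1% DMSO, immediately before IL-17A/A stimulation.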

[2] = target: T2, IL-17A/F (Homo sapiens, UniProt Q16552+Q96PD4); assay: IL-17A/F HEK-Blue Cell Assay; assay type: cell-based; details: HEK-Blue IL-17 reporter cells, IL-17A/F stimulation, 20 hours, SEAP readout; read-out: IL17AF HEK Blue pIC50 (converted)
T2 sequence (Q16552 24-155): T1 sequence (Q16552 24-155)
T2 sequence (Q96PD4 31-163): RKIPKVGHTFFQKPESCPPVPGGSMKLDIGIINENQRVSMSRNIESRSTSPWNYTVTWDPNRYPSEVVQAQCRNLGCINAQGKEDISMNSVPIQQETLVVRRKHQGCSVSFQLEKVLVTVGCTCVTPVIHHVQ

IC50 [1] | IC50 [2] | SMILES
< 10 nM | < 10 nM | CCn1nccc1C(=O)N[C@H](C(=O)Nc1ccc([C@H](C)[C@@H](NC(=O)[C@H](C)OC)C(=O)N2C[C@@H](C)N(C)C[C@H]2C)cc1F)C(C1CC1)C1CC1 [Compound 287]
< 10 nM | 100 to 10000 nM | CCC(=O)N[C@@H](C(=O)N1C[C@@H](C)N(C)C[C@H]1C)[C@@H](C)c1ccc(NC(=O)[C@@H](NC(=O)C2(F)CC2)C(C2CC2)C2CC2)c(F)c1 [Compound 288]
< 10 nM | 100 to 10000 nM | COCC(=O)N[C@@H](C(=O)N1C[C@@H](C)N(C)C[C@H]1C)[C@@H](C)c1ccc(NC(=O)[C@@H](NC(=O)C2(F)CC2)C(C2CC2)C2CC2)c(F)c1 [Compound 289]
< 10 nM | 100 to 10000 nM | CO[C@@H](C)C(=O)N[C@@H](C(=O)N1C[C@@H](C)N(C)C[C@H]1C)[C@@H](C)c1ccc(NC(=O)[C@@H](NC(=O)C2(F)CC2)C(C2CC2)C2CC2)c(F)c1 [Compound 290]
< 10 nM | < 10 nM | CCn1nccc1C(=O)N[C@H](C(=O)Nc1ccc([C@H](C)[C@@H](NC(=O)N(C)C2CC2)C(=O)N2CCN(C)[C@H](C)C2)cc1F)C(C1CC1)C1CC1 [Compound 291]
< 10 nM | 10 to 100 nM | CCn1nccc1C(=O)N[C@H](C(=O)Nc1ccc([C@H](C)[C@@H](NC(=O)C(C)(F)F)C(=O)N2CCN(C)[C@H](C)C2)cc1F)C(C1CC1)C1CC1 [Compound 292]
< 10 nM | 10 to 100 nM | CCn1nccc1C(=O)N[C@H](C(=O)Nc1ccc([C@H](C)[C@@H](NC(=O)COC)C(=O)N2C[C@@H](C)N(C)[C@@H](C)C2)cc1F)C(C1CC1)C1CC1 [Compound 293]
< 10 nM | 10 to 100 nM | CCn1nccc1C(=O)N[C@H](C(=O)Nc1ccc([C@H](C)[C@@H](NC(=O)[C@H](C)N(C)C2=NCCO2)C(=O)N2CCN(C)[C@H](C)C2)cc1F)C(C1CC1)C1CC1 [Compound 296]
< 10 nM | 10 to 100 nM | CCC(=O)N[C@@H](C(=O)N1CCN(C)[C@H](C)C1)[C@@H](C)c1ccc(NC(=O)[C@@H](NC(=O)c2ccnn2C)C(C2CC2)C2CC2)c(F)c1 [Compound 297]
< 10 nM | < 10 nM | CCn1nccc1C(=O)N[C@H](C(=O)Nc1ccc([C@H](C)[C@@H](NC(=O)[C@H](C)N(C)c2ncncn2)C(=O)N2CCN(C)[C@H](C)C2)cc1F)C(C1CC1)C1CC1 [Compound 305]
< 10 nM | < 10 nM | CCn1nccc1C(=O)N[C@H](C(=O)Nc1ccc([C@H](C)[C@@H](NC(=O)[C@H](C)Nc2ncccn2)C(=O)N2CCN(C)[C@H](C)C2)cc1F)C(C1CC1)C1CC1 [Compound 306]
10 to 100 nM | 100 to 10000 nM | CCn1nccc1C(=O)N[C@H](C(=O)Nc1ccc([C@H](C)[C@@H](NC(=O)[C@H](C)OC)C(=O)N2C[C@H]3C[C@@H](C2)N3C)cc1F)C(C1CC1)C1CC1 [Compound 307]
< 10 nM | 100 to 10000 nM | CO[C@@H](C)C(=O)N[C@@H](C(=O)N1CCN(C)[C@H](C)C1)[C@@H](C)c1ccc(NC(=O)[C@@H](NC(=O)c2nonc2C)C(C2CC2)C2CC2)c(F)c1 [Compound 308]
10 to 100 nM | 100 to 10000 nM | CCOCCN(C)C(=O)N[C@@H](C(=O)N1CCN(C)[C@H](C)C1)[C@@H](C)c1ccc(NC(=O)[C@@H](NC(=O)c2ccnn2CC)C(C2CC2)C2CC2)c(F)c1 [Compound 313]
10 to 100 nM | 100 to 10000 nM | CCOCCN(C)C(=O)N[C@@H](C(=O)N1CCN(C)CC1)[C@@H](C)c1ccc(NC(=O)[C@@H](NC(=O)c2ccnn2CC)C(C2CC2)C2CC2)c(F)c1 [Compound 316]
< 10 nM | 10 to 100 nM | CCn1nccc1C(=O)N[C@H](C(=O)Nc1ccc([C@H](C)[C@@H](NC(=O)C(C2CC2)C2CC2)C(=O)N2CCN(C)[C@H](C)C2)cc1F)C(C1CC1)C1CC1 [Compound 319]
< 10 nM | 10 to 100 nM | CCn1nccc1C(=O)N[C@H](C(=O)Nc1ccc([C@H](C)[C@@H](NC(=O)C(C2CC2)C2CC2)C(=O)N2CCN(C)CC2)cc1F)C(C1CC1)C1CC1 [Compound 330]
< 10 nM | 100 to 10000 nM | CO[C@@H](C)C(=O)N[C@@H](C(=O)N1CCN(C)CC1)[C@@H](C)c1ccc(NC(=O)[C@@H](NC(=O)c2ccnn2C2CC2)C(C2CC2)C2CC2)c(F)c1 [Compound 341]
< 10 nM | 10 to 100 nM | CO[C@@H](C)C(=O)N[C@@H](C(=O)N1CCN(C)[C@H](C)C1)[C@@H](C)c1ccc(NC(=O)[C@@H](NC(=O)c2ccnn2C2CC2)C(C2CC2)C2CC2)c(F)c1 [Compound 342]
< 10 nM | 10 to 100 nM | COCC(=O)N[C@@H](C(=O)N1CCN(C)CC1)[C@@H](C)c1ccc(NC(=O)[C@@H](NC(=O)c2ccnn2C(C)C)C(C2CC2)C2CC2)c(F)c1 [Compound 345]
10 to 100 nM | 100 to 10000 nM | COCC(=O)N[C@@H](C(=O)N1CCN(C)CC1)[C@@H](C)c1ccc(NC(=O)[C@@H](NC(=O)c2nonc2C)C(C2CC2)C2CC2)c(F)c1 [Compound 346]
< 10 nM | 100 to 10000 nM | CO[C@@H](C)C(=O)N[C@@H](C(=O)N1CCN(C)CC1)[C@@H](C)c1ccc(NC(=O)[C@@H](NC(=O)c2nonc2C)C(C2CC2)C2CC2)c(F)c1 [Compound 347]
< 10 nM | 100 to 10000 nM | COCC(=O)N[C@@H](C(=O)N1CCN(C)[C@H](C)C1)[C@@H](C)c1ccc(NC(=O)[C@@H](NC(=O)c2nonc2C)C(C2CC2)C2CC2)c(F)c1 [Compound 348]
< 10 nM | 100 to 10000 nM | CCn1nccc1C(=O)N[C@H](C(=O)Nc1ccc([C@H](C)[C@@H](NC(=O)[C@@H](C)F)C(=O)N2CCN(C)[C@H](C)C2)cc1F)C(C1CC1)C1CC1 [Compound 349]
< 10 nM | 100 to 10000 nM | CCOC(=O)N[C@@H](CF)C(=O)N[C@@H](C(=O)N1CCN(C)[C@H](C)C1)[C@@H](C)c1ccc(NC(=O)[C@@H](NC(=O)C2(F)CC2)C(C2CC2)C2CC2)c(F)c1 [Compound 358]
< 10 nM | 100 to 10000 nM | CCOC(=O)N[C@@H](CF)C(=O)N[C@@H](C(=O)N1CCN(C)CC1)[C@@H](C)c1ccc(NC(=O)[C@@H](NC(=O)C2(F)CC2)C(C2CC2)C2CC2)c(F)c1 [Compound 359]
< 10 nM | 10 to 100 nM | CCOC(=O)N[C@@H](CF)C(=O)N[C@@H](C(=O)N1CCN(C)CC1)[C@@H](C)c1ccc(NC(=O)[C@@H](NC(=O)c2nonc2C)C(C2CC2)C2CC2)c(F)c1 [Compound 360]
< 10 nM | 10 to 100 nM | CCOC(=O)N[C@@H](C)C(=O)N[C@@H](C(=O)N1CCN(C)CC1)[C@@H](C)c1ccc(NC(=O)[C@@H](NC(=O)c2nonc2C)C(C2CC2)C2CC2)c(F)c1 [Compound 361]
< 10 nM | 10 to 100 nM | CCOC(=O)N[C@@H](CF)C(=O)N[C@@H](C(=O)N1CCN(C)[C@H](C)C1)[C@@H](C)c1ccc(NC(=O)[C@@H](NC(=O)c2nonc2C)C(C2CC2)C2CC2)c(F)c1 [Compound 363]

SMILES | IC50 [1] | IC50 [2]
CO[C@@H](C)C(=O)N[C@@H](C(=O)N1C[C@H]2CC[C@@H](C1)N2C)[C@@H](C)c1ccc(NC(=O)[C@@H](NC(=O)C2(F)CC2)C(C2CC2)C2CC2)c(F)c1 [Compound 294] | 10 to 100 nM | 100 to 10000 nM
C[C@@H](c1ccc(NC(=O)[C@@H](NC(=O)C2(F)CC2)C(C2CC2)C2CC2)c(F)c1)[C@@H](NC(=O)N(C)C1CC1)C(=O)N1C[C@H]2CC[C@@H](C1)N2C [Compound 295] | < 10 nM | 100 to 10000 nM
